Reference: PubChem BioAssay AID1845211 (Molecular Pharmacology Branch, DTP, NCI, 2023)

System: NCI-H322M multicellular tumor spheroids, viability (% test/control)
Experiment: Anticancer human tumor NCI-H322M cell line growth inhibition;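 for viability, T/C: spheroids exposed to compound for seven days before readout; 100% = DMSO vehicle control wells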
Details: for IC50: curve of first compound; for viability, T/C: stronger effect = lower value
Summary of the method: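 Complex spheroids of malignant cells with endothelial cells and mesenchymal stem cells; agents alone or combined, from near clinical Cmax (or 10 microM if unknown) down in half-log steps, 0.25% DMSO final.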

[1] = second compound 30 pM, first compound 0.0949 µM
[2] = second compound 30 pM, first compound 0.3 µM
[3] = second compound 30 pM, first compound 0.949 µM
[4] = second compound 30 pM, first compound 3 µM
[5] = second compound 94.9 pM, first compound 0.0949 µM
[6] = second compound 94.9 pM, first compound 0.3 µM
[7] = second compound 94.9 pM, first compound 0.949 µM
[8] = second compound 94.9 pM, first compound 3 µM
[9] = second compound 0.0003 µM, first compound 0.0949 µM
[10] = second compound 0.0003 µM, first compound 0.3 µM
[11] = second compound 0.0003 µM, first compound 0.949 µM
[12] = second compound 0.0003 µM, first compound 3 µM
[13] = second compound 0.000949 µM, first compound 0.0949 µM
[14] = second compound 0.000949 µM, first compound 0.3 µM
[15] = second compound 0.000949 µM, first compound 0.949 µM
[16] = second compound 0.000949 µM, first compound 3 µM
[17] = second compound 0.003 µM, first compound 0.0949 µM
[18] = second compound 0.003 µM, first compound 0.3 µM
[19] = second compound 0.003 µM, first compound 0.949 µM
[20] = second compound 0.003 µM, first compound 3 µM

Which IC50 (second compound 0.003 µM) does the source give for `COc1ccc([C@@H](O)c2cc(-c3ncnc4cc(N5CCOCC5)ccc34)c(F)cc2Cl)nn1` + CC[C@@]1(O)C(=O)OCc2c1cc1n(c2=O)Cc2cc3c(CN(C)C)c(O)ccc3nc2-1 here?
Its IC50 is 1.67 µM.

And the IC50 (second compound 0.00949 µM)?
Its IC50 is 1.36 µM.

And the IC50 (second compound 0.03 µM)?
Its IC50 is 1.05 µM.

What about the IC50 (second compound 0.0949 µM) of the same compound?
The IC50 was 0.721 µM.

And the IC50 (second compound 0.3 µM)?
Its IC50 is 0.384 µM.

What about the viability, T/C (second compound 0.003 µM, first compound 0.0316 µM) of the same compound?
The viability, T/C was 79.4%.

And the viability, T/C (second compound 0.003 µM, first compound 0.1 µM)?
Its viability, T/C is 88.7%.

What about the viability, T/C (second compound 0.003 µM, first compound 0.316 µM) of the same compound?
The viability, T/C was 91.2%.

And the viability, T/C (second compound 0.003 µM, first compound 1 µM)?
The viability, T/C was 59.2%.

What about the viability, T/C (second compound 0.003 µM, first compound 3.16 µM) of the same compound?
The viability, T/C was 45%.

What about the viability, T/C (second compound 0.003 µM, first compound 10 µM) of the same compound?
Its viability, T/C is 32.2%.

What about the viability, T/C (second compound 0.00949 µM, first compound 0.0316 µM) of the same compound?
Its viability, T/C is 80.8%.

And the viability, T/C (second compound 0.00949 µM, first compound 0.1 µM)?
The viability, T/C was 75.8%.

What about the viability, T/C (second compound 0.00949 µM, first compound 0.316 µM) of the same compound?
Its viability, T/C is 79.7%.

And the viability, T/C (second compound 0.00949 µM, first compound 1 µM)?
The viability, T/C was 52.5%.

What about the viability, T/C (second compound 0.00949 µM, first compound 3.16 µM) of the same compound?
Its viability, T/C is 45.4%.

What about the viability, T/C (second compound 0.00949 µM, first compound 10 µM) of the same compound?
The viability, T/C was 32.2%.

And the viability, T/C (second compound 0.03 µM, first compound 0.0316 µM)?
The viability, T/C was 72.5%.

And the viability, T/C (second compound 0.03 µM, first compound 0.1 µM)?
The viability, T/C was 80.1%.

And the viability, T/C (second compound 0.03 µM, first compound 0.316 µM)?
The viability, T/C was 61.8%.

And the viability, T/C (second compound 0.03 µM, first compound 1 µM)?
The viability, T/C was 51.8%.

And the viability, T/C (second compound 0.03 µM, first compound 3.16 µM)?
Its viability, T/C is 37.2%.

And the viability, T/C (second compound 0.03 µM, first compound 10 µM)?
Its viability, T/C is 30.2%.

And the viability, T/C (second compound 0.0949 µM, first compound 0.0316 µM)?
The viability, T/C was 76.5%.

What about the viability, T/C (second compound 0.0949 µM, first compound 0.1 µM) of the same compound?
The viability, T/C was 61.7%.

What about the viability, T/C (second compound 0.0949 µM, first compound 0.316 µM) of the same compound?
Its viability, T/C is 61.9%.

And the viability, T/C (second compound 0.0949 µM, first compound 1 µM)?
Its viability, T/C is 46.3%.

What about the viability, T/C (second compound 0.0949 µM, first compound 3.16 µM) of the same compound?
The viability, T/C was 36.1%.

And the viability, T/C (second compound 0.0949 µM, first compound 10 µM)?
Its viability, T/C is 29.8%.

What about the viability, T/C (second compound 0.3 µM, first compound 0.0316 µM) of the same compound?
The viability, T/C was 56.4%.

What about the viability, T/C (second compound 0.3 µM, first compound 0.1 µM) of the same compound?
The viability, T/C was 54.4%.

What about the viability, T/C (second compound 0.3 µM, first compound 0.316 µM) of the same compound?
Its viability, T/C is 52.7%.

And the viability, T/C (second compound 0.3 µM, first compound 1 µM)?
The viability, T/C was 37.6%.

What about the viability, T/C (second compound 0.3 µM, first compound 3.16 µM) of the same compound?
Its viability, T/C is 26%.

What about the viability, T/C (second compound 0.3 µM, first compound 10 µM) of the same compound?
Its viability, T/C is 24.4%.

How did the IC50 (second compound 30 pM) turn out when `Cn1ncnc1[C@H]1c2n[nH]c(=O)c3cc(F)cc(c23)N[C@@H]1c1ccc(F)cc1` + COc1cc2c(cc1O)CCNC21CSC2c3c(OC(C)=O)c(C)c4c(c3C(COC1=O)N1C(O)C3Cc5cc(C)c(OC)c(O)c5C(C21)N3C)OCO4 was run?
Its IC50 is > 3 µM.

What about the IC50 (second compound 94.9 pM) of the same compound?
Its IC50 is > 3 µM.

And the IC50 (second compound 0.0003 µM)?
Its IC50 is > 3 µM.

What about the IC50 (second compound 0.000949 µM) of the same compound?
The IC50 was 1.52 µM.

What about the IC50 (second compound 0.003 µM) of the same compound?
The IC50 was < 0.00949 µM.

And the viability, T/C (second compound 30 pM, first compound 0.00949 µM)?
Its viability, T/C is 78.7%.

And the viability, T/C (second compound 30 pM, first compound 0.03 µM)?
Its viability, T/C is 89.2%.

What about the viability, T/C [1] of the same compound?
The viability, T/C was 68.8%.

What about the viability, T/C [2] of the same compound?
Its viability, T/C is 82%.

What about the viability, T/C [3] of the same compound?
The viability, T/C was 75.2%.

And the viability, T/C [4]?
Its viability, T/C is 65.6%.

And the viability, T/C (second compound 94.9 pM, first compound 0.00949 µM)?
Its viability, T/C is 71.4%.

And the viability, T/C (second compound 94.9 pM, first compound 0.03 µM)?
The viability, T/C was 78.2%.

What about the viability, T/C [5] of the same compound?
The viability, T/C was 78.8%.

What about the viability, T/C [6] of the same compound?
The viability, T/C was 70.5%.

What about the viability, T/C [7] of the same compound?
Its viability, T/C is 68.2%.

What about the viability, T/C [8] of the same compound?
The viability, T/C was 59.5%.

What about the viability, T/C (second compound 0.0003 µM, first compound 0.00949 µM) of the same compound?
The viability, T/C was 88.8%.

What about the viability, T/C (second compound 0.0003 µM, first compound 0.03 µM) of the same compound?
Its viability, T/C is 85%.

What about the viability, T/C [9] of the same compound?
The viability, T/C was 82.9%.

What about the viability, T/C [10] of the same compound?
The viability, T/C was 77.8%.

What about the viability, T/C [11] of the same compound?
Its viability, T/C is 67.3%.

And the viability, T/C [12]?
The viability, T/C was 62.9%.

What about the viability, T/C (second compound 0.000949 µM, first compound 0.00949 µM) of the same compound?
The viability, T/C was 73.6%.

And the viability, T/C (second compound 0.000949 µM, first compound 0.03 µM)?
The viability, T/C was 68.6%.

And the viability, T/C [13]?
Its viability, T/C is 72.5%.

What about the viability, T/C [14] of the same compound?
Its viability, T/C is 64.4%.

What about the viability, T/C [15] of the same compound?
The viability, T/C was 56.9%.

And the viability, T/C [16]?
Its viability, T/C is 40.3%.

And the viability, T/C (second compound 0.003 µM, first compound 0.00949 µM)?
The viability, T/C was 6.87%.

And the viability, T/C (second compound 0.003 µM, first compound 0.03 µM)?
Its viability, T/C is 9.48%.

What about the viability, T/C [17] of the same compound?
Its viability, T/C is 6.81%.

What about the viability, T/C [18] of the same compound?
The viability, T/C was 3.83%.

And the viability, T/C [19]?
The viability, T/C was 10.6%.

And the viability, T/C [20]?
Its viability, T/C is 1.7%.

Which results are given for `O=C(c1cc(Cc2n[nH]c(=O)c3ccccc23)ccc1F)N1CCN(C(=O)C2CC2)CC1` + COc1cc2c(cc1O)CCNC21CSC2c3c(OC(C)=O)c(C)c4c(c3C(COC1=O)N1C(O)C3Cc5cc(C)c(OC)c(O)c5C(C21)N3C)OCO4?
IC50 (second compound 30 pM): > 30 µM; IC50 (second compound 94.9 pM): > 30 µM; IC50 (second compound 0.0003 µM): > 30 µM; IC50 (second compound 0.000949 µM): 20.8 µM; IC50 (second compound 0.003 µM): < 0.0949 µM; viability, T/C [1]: 81.3%; viability, T/C [2]: 84.3%; viability, T/C [3]: 90.6%; viability, T/C [4]: 79.8%; viability, T/C (second compound 30 pM, first compound 9.49 µM): 85.8%; viability, T/C (second compound 30 pM, first compound 30 µM): 110%; viability, T/C [5]: 90.7%; viability, T/C [6]: 84.9%; viability, T/C [7]: 88.5%; viability, T/C [8]: 87.5%; viability, T/C (second compound 94.9 pM, first compound 9.49 µM): 79.4%; viability, T/C (second compound 94.9 pM, first compound 30 µM): 98.5%; viability, T/C [9]: 99.6%; viability, T/C [10]: 84.7%; viability, T/C [11]: 79.9%; viability, T/C [12]: 83.3%; viability, T/C (second compound 0.0003 µM, first compound 9.49 µM): 79.8%; viability, T/C (second compound 0.0003 µM, first compound 30 µM): 95.9%; viability, T/C [13]: 83.4%; viability, T/C [14]: 77.7%; viability, T/C [15]: 69.5%; viability, T/C [16]: 72.7%; viability, T/C (second compound 0.000949 µM, first compound 9.49 µM): 67.6%; viability, T/C (second compound 0.000949 µM, first compound 30 µM): 42.2%; viability, T/C [17]: 11.3%; viability, T/C [18]: 14.1%; viability, T/C [19]: 8.06%; viability, T/C [20]: 7.88%; viability, T/C (second compound 0.003 µM, first compound 9.49 µM): 4.62%; viability, T/C (second compound 0.003 µM, first compound 30 µM): 1.81%
